One may read the IC50 as the point on the concentration scale where inhibition reaches its midpoint.

The assay addresses T1, human CXCR3 (N-delta 4) (Homo sapiens, UniProt P49682).
T1 construct: CD8 leader (N); Flag tag; expressed in transfected cells; membrane preparation
T1 sequence (P49682 5-368 limits assumed): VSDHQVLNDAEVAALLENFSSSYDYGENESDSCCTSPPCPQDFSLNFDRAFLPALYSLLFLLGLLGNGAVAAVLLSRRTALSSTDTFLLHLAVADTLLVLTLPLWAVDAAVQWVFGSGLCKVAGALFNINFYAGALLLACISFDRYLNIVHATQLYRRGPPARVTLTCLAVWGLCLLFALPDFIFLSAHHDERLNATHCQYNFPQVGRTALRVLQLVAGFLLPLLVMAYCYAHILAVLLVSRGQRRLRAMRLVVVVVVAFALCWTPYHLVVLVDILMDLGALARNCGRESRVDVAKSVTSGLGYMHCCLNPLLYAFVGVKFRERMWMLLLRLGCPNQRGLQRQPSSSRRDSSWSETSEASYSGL
The assay is described as follows: Human CXCR3 (N-delta 4) scintillation proximity assay (SPA), [125I] IP-10 binding to Ba/F3-hCXCR3 membranes. Conditions: IC50 rating; [125I] IP-10 displacement, human CXCR3; read-out: IC50. The source says: The inventive compounds can readily be evaluated to determine activity at the CXCR3 receptors by known methods, such as, for example, development of a human CXCR3 (N-delta 4) Binding Assay.
The DNA encoding human CXCR3 was cloned by PCR using human genomic DNA (Promega, Madison, Wis.) as a template. The PCR primers were designed based on the published sequence of human orphan receptor GPR9 (1) with incorporated restriction sites, a Kozak consensus sequence, CD8 leader and Flag tag. The PCR product was subcloned into the mammalian expression vector pME18Sneo, a derivative of the SR-alpha expression vector (designated as pME18Sneo-hCXCR3 (N-delta 4).
IL-3-dependent mouse pro-B cells Ba/F3 were transfected by electroporation in 0.4 ml Dulbecco's PBS containing 4×10^6 cells with 20 μg of pME18Sneo-hCXCR3 (N-delta 4) plasmid DNA. Cells were pulsed at 400 Volts, 100 OHMs, 960 μFd. The transfected cells were under selection with 1 mg/ml G418 (Life Technologies, Gaithersburg, Md.). G418-resistant Ba/F3 clones were screened for CXCR3 expression by specific binding of [^125I] IP-10 (NEN Life Science Products, Boston, Mass.).
Ba/F3 cells expressing human CXCR3 (N-delta 4) were pelleted and resuspended in the lysis buffer containing 10 mM HEPES, pH 7.5 and Complete® protease inhibitors (1 tablet per 100 ml) (Boehringer Mannheim, Indianapolis, Ind.) at a cell density of 20×10^6 cells per ml. After 5 minute incubation on ice, cells were transferred to 4639 cell disruption bomb (Parr Instrument, Moline, Ill.) and applied with 1,500 psi of nitrogen for 30 minutes on ice. Large cellular debris was removed by centrifugation at 1,000×g. Cell membrane in the supernatant was sedimented at 100,000×g. The membrane was resuspended in the lysis buffer supplemented with 10% sucrose and stored at −80° C. Total protein concentration of the membrane was determined by BCA method from Pierce (Rockford, Ill.).
Human CXCR3 (N-Delta 4) Scintillation Proximity Assay (SPA):
For each assay point, 2 μg of membrane was preincubated for 1 hr with 300 μg wheat germ agglutinin (WGA) coated SPA beads (Amersham, Arlington Heights, Ill.) in the binding buffer (50 mM HEPES, 1 mM CaCl2, 5 mM MgCl2, 125 mM NaCl, 0.002% NaN3, 1.0% BSA) at room temperature. The beads were spun down, washed once, resuspended in the binding buffer and transferred to a 96-well Isoplate (Wallac, Gaithersburg, Md.). 25 pM of [^125I] IP-10 with tested compounds in a series of titration were added to start the reaction. After 3 hr reaction at room temperature, the amount of [^125I] IP-10 bound to the SPA beads was determined with a Wallac 1450 Microbeta counter.
In general terms: Scintillation proximity formats need no separation of bound from free tracer.
`CC[C@H]1CN(c2ncc(NC3=NS(=O)(=O)N=C3NC3CC3)cc2Cl)CCN1C1CCN(Cc2ccc(Cl)cc2-c2nnc(Br)[nH]2)CC1` [Compound 270]: the IC50 was over 100 nM. Under `CC[C@H]1CN(c2ncc(NS(C)(=O)=O)cc2Cl)CCN1C1CCN(Cc2ccsc2)CC1` [Compound 60] stands over 100 nM; under `CC[C@H]1CN(c2ncc(Nc3c(NC4CC4)c(=O)c3=O)cc2Cl)CCN1C1CCN(Cc2ccc(Cl)cc2[N+](=O)[O-])CC1` [Compound 99], under 25 nM. On to `CC[C@H]1CN(c2ncc(NS(C)(=O)=O)cc2Cl)CCN1C1CCN(Cc2ccc(Cl)cc2N)CC1` [Compound 9], for which the IC50 was under 25 nM.

`CC[C@H]1CN(c2ncc(Nc3ncccn3)cc2Cl)CCN1C1CCN(Cc2ccc(Cl)cc2F)CC1` [Compound 211]: the IC50 lay in the range of 25 to 100 nM. Under `CC[C@H]1CN(c2ncc(N/C(=N/C#N)NC3CC3)cc2Cl)CCN1C1CCN(Cc2ccc(Cl)cc2F)CC1` [Compound 209] stands 25 to 100 nM; under `CC[C@H]1CN(c2ncc(NC3=NS(=O)(=O)N=C3NC3CC3)cc2Cl)CCN1C1CCN(Cc2ccc(OC(F)(F)F)cc2)CC1` [Compound 234], under 25 nM; under `CC1CCCC(N2CCC(N3C[C@H](C)N(c4ncc(Nc5c(NCC(F)(F)F)c(=O)c5=O)cc4Cl)C[C@H]3C)CC2)C1` (stereo partly drawn) [Compound 176], over 100 nM. Under `CC[C@H]1CN(c2ncc(NC3=NS(=O)(=O)N=C3NC(C)(C)C)cc2Cl)CCN1C1CCN(Cc2ccc(Cl)cc2C#N)CC1` [Compound 267] stands over 100 nM; under `CC[C@H]1CN(c2ncc(Nc3c(N[C@@H](c4ccc(C)o4)C(C)(C)C)c(=O)c3=O)cc2Cl)CCN1C1CCN([C@H](CO)c2ccc(Cl)cc2)CC1` [Compound 109], 25 to 100 nM; under `CC[C@H]1CN(c2ncc(Nc3c(NCC(F)(F)F)c(=O)c3=O)cc2Cl)CCN1C1CCN(C(CO)c2ccc(Cl)cc2)CC1` (stereo partly drawn) [Compound 85], under 25 nM. Under `C[C@@H]1CN(c2ncc(Nc3c(NCC(F)(F)F)c(=O)c3=O)cc2Cl)[C@@H](C)CN1C1CCN(C2CCC(c3ccccc3)CC2)CC1` (stereo partly drawn) [Compound 146] stands over 100 nM. `CC[C@H]1CN(c2ncc(NC3=NS(=O)(=O)N=C3Nc3ccccc3O)cc2Cl)CCN1C1CCN(Cc2ccc(Cl)cc2F)CC1` [Compound 277]: the IC50 is over 100 nM. As for `CC1CCCC(N2CCC(N3C[C@H](C)N(c4ncc(Nc5c(NCC(F)(F)F)c(=O)c5=O)cc4Cl)C[C@H]3C)CC2)C1` (stereo partly drawn) [Compound 163], the figure is over 100 nM. Under `CC[C@H]1CN(c2ncc(NS(C)(=O)=O)cc2Cl)CCN1C1CCN(Cc2ccc(Cl)cc2NC)CC1` [Compound 14] stands under 25 nM; under `CC[C@H]1CN(c2ncc(NC3=NS(=O)(=O)N=C3NC(C)(C)C)cc2Cl)CCN1C1CCN(Cc2ccc(Cl)cc2F)CC1` [Compound 255], 25 to 100 nM. Under `CCC(C)CN1CCC(N2C[C@H](C)N(c3ncc(Nc4c(NCC(F)(F)F)c(=O)c4=O)cc3Cl)C[C@H]2C)CC1` (stereo partly drawn) [Compound 132] stands over 100 nM; under `CC[C@H]1CN(c2ncc(-n3cccc3)cc2Cl)CCN1C1CCN(Cc2ccc(Cl)cc2F)CC1` [Compound 222], over 100 nM.

Turning to `CC[C@H]1CN(c2ncc(NCCCC(F)(F)F)cc2Cl)CCN1C1CCN(Cc2ccc(Cl)cc2)CC1` [Compound 204], the IC50 lay in the range of 25 to 100 nM. As for `CC[C@H]1CN(c2nc(N)c(N)nc2Cl)CCN1C1CCN(Cc2ccc(Cl)cc2F)CC1` [Compound 219], the figure is over 100 nM; as for `CC[C@H]1CN(c2ncc(NS(C)(=O)=O)cc2Cl)CCN1C1CCN(Cc2ccc(Br)cc2OC)CC1` [Compound 65], over 100 nM. As for `C[C@@H]1CN(c2ncc(Nc3c(NCC(F)(F)F)c(=O)c3=O)cc2Cl)[C@@H](C)CN1C1CCN(Cc2nccs2)CC1` [Compound 152], the figure is over 100 nM; as for `CC[C@H]1CN(c2ncc(NC3=NS(=O)(=O)N=C3N)cc2Cl)CCN1C1CCN(Cc2ccc(Cl)cc2-c2ncon2)CC1` [Compound 265], over 100 nM. In the case of `CC[C@H]1CN(c2ncc(NC(C)=O)cc2Cl)CCN1C1CCN(Cc2ccc(Cl)cc2F)CC1` [Compound 177], the IC50 was under 25 nM. As for `CC[C@H]1CN(c2ncc(NC(=O)Oc3ccccc3)cc2Cl)CCN1C1CCN(Cc2ccc(Cl)cc2F)CC1` [Compound 189], the figure is 25 to 100 nM; as for `C[C@H]1CN(c2ncc(N)cc2Cl)CCN1C1CCN(Cc2ccc(Cl)cc2F)CC1` [Compound 224], over 100 nM.

With `CC[C@H]1CN(c2ncc(NC3=NS(=O)(=O)N=C3NCCNS(C)(=O)=O)cc2Cl)CCN1C1CCN(Cc2ccc(Cl)cc2F)CC1` [Compound 274], the IC50 was over 100 nM. Take `CC[C@H]1CN(c2ncc(Nc3c(NC4CC4)c(=O)c3=O)cc2Cl)CCN1C1CCN(Cc2ccc(Cl)cc2)CC1` [Compound 70]: the IC50 was under 25 nM. Take `CC[C@H]1CN(c2ncc(-n3cn[nH]c3=O)cc2Cl)CCN1C1CCN(Cc2ccc(Cl)cc2F)CC1` [Compound 179]: the IC50 is under 25 nM. Under `CC[C@H]1CN(c2ncc(NS(C)(=O)=O)cc2Cl)CCN1C1CCN(Cc2ccc(F)cc2)CC1` [Compound 25] stands 25 to 100 nM; under `CC[C@H]1CN(c2ncc(NC3=NS(=O)(=O)N=C3NC)cc2Cl)CCN1C1CCN(Cc2ccc(Cl)cc2C#N)CC1` [Compound 263], 25 to 100 nM; under `C[C@H]1CN(c2ncc(NS(C)(=O)=O)cc2Cl)CCN1C1CCN(CCCc2ccc(Cl)cc2)CC1` [Compound 57], over 100 nM. As for `CC[C@H]1CN(c2ncc(N(C)C)cc2Cl)CCN1C1CCN(C(CO)c2ccc(Cl)cc2)CC1` (stereo partly drawn) [Compound 213], the figure is 25 to 100 nM; as for `C[C@@H]1CN(c2ncc(Nc3c(NCC(F)(F)F)c(=O)c3=O)cc2Cl)[C@@H](C)CN1C1CCN(CCCc2ccccc2)CC1` [Compound 116], over 100 nM.

With `CC[C@H]1CN(c2ncc(NC3=NS(=O)(=O)N=C3NC[C@@H](C)O)cc2Cl)CCN1C1CCN(Cc2ccc(Cl)cc2F)CC1` [Compound 258], the IC50 is 25 to 100 nM. As to `C[C@H]1CN(c2ncc(NC(=O)Nc3ccc(F)cc3)cc2Cl)CCN1C1CCN(Cc2ccc(Cl)cc2)CC1` [Compound 199], the IC50 was over 100 nM. As to `CC[C@H]1CN(c2ncc(NC3=NS(=O)(=O)N=C3NC3CC3)cc2Cl)CCN1C1CCN(Cc2ccc(Cl)cc2C(=N)NO)CC1` [Compound 236], the IC50 was under 25 nM. As for `C[C@H]1CN(c2ncc(Nc3ncccn3)cc2Cl)CCN1C1CCN(Cc2ccc(Cl)cc2F)CC1` [Compound 223], the figure is over 100 nM; as for `C[C@@H]1CN(c2ncc(Nc3c(NCC(F)(F)F)c(=O)c3=O)cc2Cl)[C@@H](C)CN1C1CCN(Cc2cccc(C(F)(F)F)c2)CC1` [Compound 157], over 100 nM; as for `CC[C@H]1CN(c2ncc(NC3=NS(=O)(=O)N=C3N(C)C)cc2Cl)CCN1C1CCN(Cc2ccc(OC(F)(F)F)cc2)CC1` [Compound 271], over 100 nM. Under `C[C@H]1CN(c2ncc([N+](=O)[O-])cc2Cl)CCN1C1CCN(Cc2ccc(Cl)cc2F)CC1` [Compound 227] stands over 100 nM. For `CC[C@H]1CN(c2ncc(NS(C)(=O)=O)cc2Cl)CCN1C1CCN(C(C(=O)OC)c2ccc(Cl)cc2)CC1` (stereo partly drawn) [Compound 39], the IC50 fell in the range of 25 to 100 nM. Under `CC[C@H]1CN(c2ncc(NS(=O)(=O)N(C)C)cc2Cl)CCN1C1CCN(Cc2ccc(Cl)cc2F)CC1` [Compound 17] stands under 25 nM; under `CC[C@H]1CN(c2ncc(N(C)c3c(NC4CC4)c(=O)c3=O)cc2Cl)CCN1C1CCN([C@H](C(N)=O)c2ccc(Cl)cc2)CC1` [Compound 112], 25 to 100 nM; under `CC[C@H]1CN(c2ccc([N+](=O)[O-])cc2Cl)CCN1C1CCN(Cc2ccc(Cl)cc2)CC1` [Compound 216], over 100 nM.
